In patent US20120129870A1, “PIPERAZINYL DERIVATIVES USEFUL AS MODULATORS OF THE NEUROPEPTIDE Y2 RECEPTOR” (priority 2007, published 2012):

Legend:
NPY Y2 receptor [1] = biological target: T1, NPY Y2 receptor (Homo sapiens, UniProt P49146); test: Neuropeptide Y2 radioligand binding assay ([125I]PYY, KAN-Ts membranes); parameters: endogenous in cells; host or cells: KAN-Ts cells (membrane preparation); details: for Ki: apparent Ki=IC50/(1+C/KD); for IC50: KAN-Ts membranes endogenously expressing Y2, [125I]PYY (80 pM), 1 h at rt
T1 sequence (P49146 1-381): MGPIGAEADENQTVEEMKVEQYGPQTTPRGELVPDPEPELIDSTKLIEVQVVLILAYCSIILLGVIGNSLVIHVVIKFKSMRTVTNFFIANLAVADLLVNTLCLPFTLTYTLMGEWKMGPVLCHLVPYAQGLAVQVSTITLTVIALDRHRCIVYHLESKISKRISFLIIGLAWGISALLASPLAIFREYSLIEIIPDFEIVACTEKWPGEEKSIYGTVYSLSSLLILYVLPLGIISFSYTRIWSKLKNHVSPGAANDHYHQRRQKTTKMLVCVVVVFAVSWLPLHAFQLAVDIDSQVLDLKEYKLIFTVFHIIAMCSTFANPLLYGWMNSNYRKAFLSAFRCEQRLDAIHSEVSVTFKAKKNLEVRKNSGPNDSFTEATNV
Summary of the method: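 Membranes from KAN-Ts cells with endogenous Y2 receptors, incubated with 80 pM [125I]PYY ± compound for 1 h at rt in HEPES/NaCl/CaCl2/MgSO4 buffer, then filtered and counted. Nonspecific binding defined with […]. IC50 from sigmoidal fit; Ki = IC50/(1+C/KD).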

NPY Y2 receptor [2] = biological target: T1, NPY Y2 receptor; test: Neuropeptide Y2 pKB assay (FLIPR, KAN-Ts cells stably expressing chimeric G proteins); format: cell-based; details: apparent pKB, modified Cheng-Prusoff correction
Procedure: The assay was performed using the fluorimetric imaging plate reader (FLIPR) format as described in Dautzenberg, F. M., Biochemical Pharmacology 2005, 69, 1493.
KAN-Ts cells stably expressing chimeric G proteins were seeded at a density of 100,000 cells into poly-d-lysine coated 384-well blackwall, clear-bottom microtiter plates (Corning, N.Y.). One day later, the medium was removed and 50 μl loading medium DMEM high glucose, without serum, supplemented with 10 mM HEPES-acid, 0.1% BSA, 5 mM probenecid and 2 μM Fluo-3AM was added. Cells were loaded for 1 h at 37° C., washed twice with 50 μl assay buffer (5 mM HEPES-acid, 140 mM NaCl, 1 mM MgCl2, 5 mM KCl, 10 mM glucose) and then 30 μl assay buffer was added. Cells were further pre-incubated at room temperature before adding agonists or agonists plus antagonists in 20 μl assay buffer and then measured on a T-channel fluorometric imaging plate reader (FLIPR, Molecular Devices, Sunnyvale, Calif.). Antagonistic potency values were converted to apparent pKB values using a modified Cheng-Prusoff correction. Apparent pKB was calculated as pKB=−log IC50/1+[conc agonist/EC50].

Ki (NPY Y2 receptor [1]) [nM]	Kb (NPY Y2 receptor [2]) [nM]	IC50 (NPY Y2 receptor [1]) [nM]	SMILES
14	501		Cc1noc(C)c1C(=O)Nc1ccc(N2CCN(C(c3ccccc3)c3ccccc3)CC2)c(C#N)c1 [Compound 302, N-{3-Cyano-4-[4-(diphenylmethyl)piperazin-1-yl]phenyl}-3,5-dimethylisoxazole-4-carboxamide]
	63.1	45	CCC(CC)C(=O)Nc1ccc(N2CCN(C(c3cccc(F)c3)c3ncco3)CC2)c(F)c1 (stereo not drawn) [Compound 132, 2-Ethyl-N-(3-fluoro-4-{4-[(3-fluoro-phenyl)-oxazol-2-yl-methyl]-piperazin-1-yl}-phenyl)-butyramide]
	126	75	CCC(CC)C(=O)Nc1ccc(N2CCN(C(c3ccccc3)c3ncco3)CC2)c(C)c1 (stereo not drawn) [Compound 85, 2-Ethyl-N-{3-methyl-4-[4-(oxazol-2-yl-phenyl-methyl)-piperazin-1-yl]-phenyl}-butyramide]
	100	43	CCC(CC)C(=O)Nc1ccc(N2CCN(C(c3ccccc3)c3nnc(C(C)C)o3)CC2)c(F)c1 (stereo not drawn) [Compound 160, 2-Ethyl-N-(3-fluoro-4-{4-[(5-isopropyl-[1,3,4]-oxadiazol-2-yl)-phenyl-methyl]-piperazin-1-yl}-phenyl)-butyramide]
	100	52	CCC(CC)C(=O)Nc1ccc(N2CCN(C(c3ccccc3)c3ncccn3)CC2)c(F)c1 (stereo not drawn) [Compound 40, 2-Ethyl-N-{3-fluoro-4-[4-(phenyl-pyrimidin-2-yl-methyl)-piperazin-1-yl]-phenyl}-butyramide]
	25.1	21	CCC(CC)C(=O)Nc1ccc(N2CCN(C(c3ccc(F)cc3)c3ncco3)CC2)c(C#N)c1 (stereo not drawn) [Compound 139, N-(3-Cyano-4-{4-[(4-fluoro-phenyl)-oxazol-2-yl-methyl]-piperazin-1-yl}-phenyl)-2-ethyl-butyramide]
	63.1	28	CCC(CC)C(=O)Nc1ccc(N2CCN(C(c3ccccc3)c3nccs3)CC2)c(F)c1 (stereo not drawn) [Compound 39, 2-Ethyl-N-{3-fluoro-4-[4-(phenyl-thiazol-2-yl-methyl)-piperazin-1-yl]-phenyl}-butyramide]
	126	39	CCC(CC)C(=O)Nc1ccc(N2CCN(C(c3ccccc3)c3noc(-c4ccccc4)n3)CC2)c(F)c1 (stereo not drawn) [Compound 240, 2-Ethyl-N-(3-fluoro-4-{4-[phenyl-(5-phenyl-[1,2,4]-oxadiazol-3-yl)-methyl]-piperazin-1-yl}-phenyl)-butyramide]
4.3	31.6		CCC(CC)C(=O)Nc1ccc(N2CCN(C(c3ccccc3)c3cccnc3)CC2)c(C#N)c1 (stereo not drawn) [Compound 317, N-{3-Cyano-4-[4-(phenyl-pyridin-3-yl-methyl)-piperazin-1-yl]-phenyl}-2-ethyl-butyramide]
36	316		CCC(CC)C(=O)Nc1ccc(N2CCN(C(c3ccccc3)c3ccccc3C)CC2)c(C#N)c1 (stereo not drawn) [Compound 305, N-{3-Cyano-4-[4-(phenyl-o-tolyl-methyl)-piperazin-1-yl]-phenyl}-2-ethyl-butyramide]
	50.1	40	CCC(CC)C(=O)Nc1ccc(N2CCN(C(c3ccccc3)c3ncco3)CC2)c(F)c1 (stereo not drawn) [Compound 20, 2-Ethyl-N-{3-fluoro-4-[4-(oxazol-2-yl-phenyl-methyl)-piperazin-1-yl]-phenyl}-butyramide]
	200	96	CCC(CC)C(=O)Nc1ccc(N2CCN(C(c3ccccc3)c3ncco3)CC2)c(F)c1 (single isomer, unassigned) [Compound 59, 2-Ethyl-N-{3-fluoro-4-[4-(oxazol-2-yl-phenyl-methyl)-piperazin-1-yl]-phenyl}-butyramide]
	79.4	33	CCC(CC)C(=O)Nc1ccc(N2CCN(C(c3ccccc3)c3ccccc3)CC2)c(F)c1 [Compound 4, N-[4-(4-Benzhydryl-piperazin-1-yl)-3-fluoro-phenyl]-2-ethyl-butyramide]
	100	20	CCC(CC)C(=O)Nc1ccc(N2CCN(C(c3ccccc3)c3nnc(C(CC)CC)o3)CC2)c(F)c1 (stereo not drawn) [Compound 163, 2-Ethyl-N-[4-(4-{[5-(1-ethyl-propyl)-[1,3,4]oxadiazol-2-yl]-phenyl-methyl}-piperazin-1-yl)-3-fluoro-phenyl]-butyramide]
	126	50	CCC(CC)C(=O)Nc1cc(F)c(N2CCN(C(c3ccccc3)c3ncco3)CC2)c(F)c1 (stereo not drawn) [Compound 243, N-{3,5-Difluoro-4-[4-(oxazol-2-yl-phenyl-methyl)-piperazin-1-yl]-phenyl}-2-ethyl-butyramide]
	50.1	22	CCC(CC)C(=O)Nc1ccc(N2CCN(C(c3ccccc3)c3noc(C(C)C)n3)CC2)c(F)c1 (stereo not drawn) [Compound 82, 2-Ethyl-N-(3-fluoro-4-{4-[(5-isopropyl-[1,2,4]-oxadiazol-3-yl)-phenyl-methyl]-piperazin-1-yl}-phenyl)-butyramide]
	31.6	25	CCC(CC)C(=O)Nc1ccc(N2CCN(C(c3ccccc3)c3noc(-c4cccnc4)n3)CC2)c(F)c1 (stereo not drawn) [Compound 238, 2-Ethyl-N-(3-fluoro-4-{4-[phenyl-(5-pyridin-3-yl-[1,2,4]-oxadiazol-3-yl)-methyl]-piperazin-1-yl}-phenyl)-butyramide]
	10000	95	O=C(Nc1ccc(N2CCN(C(c3ccccc3)c3ncco3)CC2)c(F)c1)C1CCCC1 (stereo not drawn) [Compound 54, Cyclopentanecarboxylic acid {3-fluoro-4-[4-(oxazol-2-yl-phenyl-methyl)-piperazin-1-yl]-phenyl}amide]
	63.1	33	CCC(CC)C(=O)Nc1ccc(N2CCN(C(c3ccc(C#N)cc3)c3ncco3)CC2)c(C#N)c1 (stereo not drawn) [Compound 145, N-(3-Cyano-4-{4-[(4-cyano-phenyl)-oxazol-2-yl-methyl]-piperazin-1-yl}-phenyl)-2-ethyl-butyramide]
11	31.6		N#Cc1cc(NC(=O)C2CC2)ccc1N1CCN(C(c2ccccc2)c2cccnc2)CC1 (stereo not drawn) [Compound 321, Cyclopropanecarboxylic acid {3-cyano-4-[4-(phenyl-pyridin-3-yl-methyl)-piperazin-1-yl]-phenyl}-amide]
	50.1	29	CCC(CC)C(=O)Nc1ccc(N2CCN(C(c3ccc(OC)cc3)c3ncco3)CC2)c(C#N)c1 (stereo not drawn) [Compound 141, N-(3-Cyano-4-{4-[(4-methoxy-phenyl)-oxazol-2-yl-methyl]-piperazin-1-yl}-phenyl)-2-ethyl-butyramide]
4.4	50.1		CCC(CC)C(=O)Nc1ccc(N2CCN(C(c3ccccc3)c3ccncc3)CC2)c(C#N)c1 (stereo not drawn) [Compound 315, N-{3-Cyano-4-[4-(phenyl-pyridin-4-yl-methyl)-piperazin-1-yl]-phenyl}-2-ethyl-butyramide]
	20	18	CCC(CC)C(=O)Nc1ccc(N2CCN(C(c3ccccc3)c3ccccn3)CC2)c(F)c1 (stereo not drawn) [Compound 33, 2-Ethyl-N-{3-fluoro-4-[4-(phenyl-pyridin-2-yl-methyl)-piperazin-1-yl]-phenyl}-butyramide]
	63.1	16	CCC(CC)C(=O)Nc1ccc(N2CCN(C(c3ccccc3)c3ncco3)CC2)c(Br)c1 (stereo not drawn) [Compound 237, N-{3-Bromo-4-[4-(oxazol-2-yl-phenyl-methyl)-piperazin-1-yl]-phenyl}-2-ethyl-butyramide]
4.7	501		CCC(CC)C(=O)Nc1ccc(N2CCN(C(c3ccccc3)c3ccccc3)CC2)c(C#N)c1 [Compound 304, N-[4-(4-Benzhydryl-piperazin-1-yl)-3-cyano-phenyl]-2-ethyl-butyramide]
	200	140	Cc1noc(C)c1C(=O)Nc1ccc(N2CCN(C(c3ccccc3)c3ncco3)CC2)c(F)c1 (stereo not drawn) [Compound 113, 3,5-Dimethyl-isoxazole-4-carboxylic acid {3-fluoro-4-[4-(oxazol-2-yl-phenyl-methyl)-piperazin-1-yl]-phenyl}-amide]

SMILES	Ki (NPY Y2 receptor [1]) [nM]	Kb (NPY Y2 receptor [2]) [nM]	IC50 (NPY Y2 receptor [1]) [nM]
CCc1noc(C(c2ccccc2)N2CCN(c3ccc(NC(=O)C(CC)CC)cc3F)CC2)n1 (stereo not drawn) [Compound 1, 2-Ethyl-N-(4-{4-[(3-ethyl-[1,2,4]-oxadiazol-5-yl)-phenyl-methyl]-piperazin-1-yl}-3-fluoro-phenyl)-butyramide]		35.5	27
